In patent publication US5114464A, “4-quinoxalinyloxyphenoxyalkylinitrile herbicides” (Uniroyal Chemical Company, Inc., priority 1990, dated 1992):

Columns and labels:
[1] = tested on: wild oat; test: Postemergence selectivity, greenhouse: wild oat (Table V); format: in vivo, Avena fatua L.; conditions: 2 weeks
Procedure: (§1) To illustrate the effectiveness of Compound 1 of this invention as a corn-safe selective postemergence herbicide, the 3000 ppm solution prepared as described in Example 3 was diluted with distilled water to 250 ppm and applied to foliage as described in Example 3. The commercial product Hoelon 3EC® (Hoechst) was included as a standard. The foliage included weedy grasses described in Example 3 in addition to the crops corn, soybeans and cotton. The foliage was planted in a Connecticut greenhouse on May 16, and was treated on May 26. The percent weed control and crop injury was determined on Jun. 12.
(§2) To illustrate the effectiveness of Compound 2 of this invention as a corn-safe selective postemergence herbicide, various concentrations of the compound were prepared and applied as in Example 5 to the following weeds and crops: velvet leaf (Abutilon theoohrasti Medic.) (VL), prickly sida (Sida spinosa L.) (PS), wild morningglory (Ipomopa sp.) (WM), barnyard grass (Echinolchloa crus-galli (L.) Beauv.) (BG), green foxtail (Setaria viridis) (L.) Beauv.) (GF), wild oat (Avena fatua L.) (WO), corn (CR), soybean (SO), cotton (CT) and rice (RC). The weeds and crops were planted in mid-September in a Connecticut greenhouse and were treated eight days later. The percent weed control and crop injury was determined 2 weeks after treatment.

[2] = tested on: barnyard grass; test: Postemergence control of barnyard grass (Table II); format: in vivo, Echinolchloa crus-oalli (L.) Beauv.; conditions: 3000 ppm, two weeks after treatment
Procedure: (§3) To illustrate the effectiveness of the Compounds 1 and 2 of this invention as preemergence herbicides, 300 mg of each compound were dissolved in 10 ml acetone to which 30 mg of an emulsifying agent, ethoxylated sorbitan monolaurate, were added. The solution was diluted to 100 ml with distilled water. Ten milliliters of the 3000 ppm solution were diluted to 250 ppm with distilled water. The chemical was applied at the rate of 10 lb/A (11.2 kg/ha) by drenching 46 ml of the 250 ppm solution on the surface of soil in 41/2inch (11.25 cm) plastic pots wherein seeds of the following weeds had been planted: velvet leaf (Abutilon theoohrasti Medic.) (VL), prickly sida (sida soinosa L.) (PS), tall morningglory (Ioomea purourea L. Roth) (TM), switchgrass (Panicum viroatum L.) (SG), barnyard grass (Echinolchloa crus-oalli (L.) Beauv.) (BG), and green foxtail (Setaria viridis) (L.) Beauv.) (GF). The percent control of the weeds compared to untreated checks was determined two weeks after treatment.
(§4) To test the effectiveness of Compounds 1 and 2 of this invention as postemergence herbicides, a 3000 ppm solution of each compound (produced in accordance with the process described under Example 3) was atomized employing a DEVILBISS [trademark] sprayer, wetting the foliage to the drip point. […] The percent weed control was evaluated two weeks after treatment.

[3] = tested on: barnyard grass; test: Preemergence control of barnyard grass (Table I); format: in vivo, Echinolchloa crus-oalli (L.) Beauv.; conditions: 11.2 kg/ha, two weeks after treatment
Procedure: as §3

[4] = tested on: velvet leaf; test: Preemergence control of velvet leaf (Table I); format: in vivo, Abutilon theoohrasti Medic.; conditions: 11.2 kg/ha, two weeks after treatment
Procedure: as §3

[5] = tested on: weeds; test: Postemergence control, summary statement; format: in vivo; conditions: 3000 ppm
Procedure: as §3, §4

[6] = tested on: switchgrass; test: Preemergence control of switchgrass (Table I); format: in vivo, Panicum viroatum L.; conditions: 11.2 kg/ha, two weeks after treatment
Procedure: as §3

[7] = tested on: prickly sida; test: Preemergence control of prickly sida (Table I); format: in vivo, sida soinosa L.; conditions: 11.2 kg/ha, two weeks after treatment
Procedure: as §3

[8] = tested on: wild morningglory; test: Postemergence selectivity, greenhouse: wild morningglory (Table V); format: in vivo, Ipomopa sp.; conditions: 2 weeks
Procedure: as §1, §2

[9] = tested on: corn; test: Postemergence selectivity, greenhouse: corn injury (Table V); format: in vivo; conditions: for Percent crop injury CR: postemergence, 2 weeks
Procedure: as §1, §2

[10] = tested on: tall morningglory; test: Preemergence control of tall morningglory (Table I); format: in vivo, Ioomea purourea L. Roth; conditions: 11.2 kg/ha, two weeks after treatment
Procedure: as §3

[11] = tested on: rice; test: Postemergence selectivity, greenhouse: rice injury (Table V); format: in vivo; conditions: 2 weeks
Procedure: as §1, §2

[12] = tested on: prickly sida; test: Postemergence control of prickly sida (Table II); format: in vivo, sida soinosa L.; conditions: 3000 ppm, two weeks after treatment
Procedure: as §3, §4

[13] = tested on: weeds; test: Preemergence control, summary statement; format: in vivo; conditions: 11.2 kg/ha
Procedure: as §3

[14] = tested on: velvet leaf; test: Postemergence selectivity, greenhouse: velvet leaf (Table V); format: in vivo, Abutilon theoohrasti Medic.; conditions: 2 weeks
Procedure: as §1, §2

[15] = tested on: green foxtail; test: Preemergence control of green foxtail (Table I); format: in vivo, Setaria viridis (L.) Beauv.; conditions: 11.2 kg/ha, two weeks after treatment
Procedure: as §3

[16] = tested on: cotton; test: Postemergence selectivity, greenhouse: cotton injury (Table V); format: in vivo; conditions: 2 weeks
Procedure: as §1, §2

[17] = tested on: grass weeds; test: Postemergence selectivity greenhouse (Example 7), summary for grass weeds; format: in vivo; conditions: 1000 to 3000 ppm
Procedure: as §1, §2

[18] = tested on: switchgrass; test: Postemergence control of switchgrass (Table II); format: in vivo, Panicum viroatum L.; conditions: 3000 ppm, two weeks after treatment
Procedure: as §3, §4

[19] = tested on: green foxtail; test: Postemergence control of green foxtail (Table II); format: in vivo, Setaria viridis (L.) Beauv.; conditions: 3000 ppm, two weeks after treatment
Procedure: as §3, §4

[20] = tested on: prickly sida; test: Postemergence selectivity, greenhouse: prickly sida (Table V); format: in vivo, Sida spinosa L.; conditions: 2 weeks
Procedure: as §1, §2

[21] = tested on: green foxtail; test: Postemergence selectivity, greenhouse: green foxtail (Table V); format: in vivo, Setaria viridis (L.) Beauv.; conditions: 2 weeks
Procedure: as §1, §2

[22] = tested on: tall morningglory; test: Postemergence control of tall morningglory (Table II); format: in vivo, Ioomea purourea L. Roth; conditions: 3000 ppm, two weeks after treatment
Procedure: as §3, §4

[23] = tested on: soybean; test: Postemergence selectivity, greenhouse: soybean injury (Table V); format: in vivo; conditions: 2 weeks
Procedure: as §1, §2

[24] = tested on: barnyard grass; test: Postemergence selectivity, greenhouse: barnyard grass (Table V); format: in vivo, Echinolchloa crus-galli (L.) Beauv.; conditions: 2 weeks
Procedure: as §1, §2

[25] = tested on: velvet leaf; test: Postemergence control of velvet leaf (Table II); format: in vivo, Abutilon theoohrasti Medic.; conditions: 3000 ppm, two weeks after treatment
Procedure: as §3, §4

In the case of `CC(C#N)Oc1ccc(Oc2cnc3cc(Cl)ccc3n2)cc1` (stereo not shown) [Compound 2, 2-[4-(6-chloro-2-quinoxalinyloxy)phenoxy]propionitrile], the “Percent Weed Control WO” value ([1]; 1000 ppm) is reported as 0%, the “Percent Weed Control WO” value ([1]; 2000 ppm) is reported as 0% and the “Percent Weed Control WO” value ([1]; 3000 ppm) is reported as 10%. The “% Control BG” value [2] was 65%, the “% Control BG” value [3] was 50% and the “% Control VL” value [4] was 0%. The “postemergent herbicidal control” value [5] was “desirable postemergent herbicidal control”, the “% Control SG” value [6] was 100% and the “% Control PS” value [7] was 0%. For the same compound, the “Percent Weed Control WM” value ([8]; 1000 ppm) was 10%, the “Percent Weed Control WM” value ([8]; 2000 ppm) was 10% and the “Percent Weed Control WM” value ([8]; 3000 ppm) was 20%. For the same compound, the “Percent crop injury CR” value ([9]; 1000 ppm) was 0%, the “corn safety” value ([9]; 1000 to 3000 ppm) was “substantially innocuous to corn” and the “Percent crop injury CR” value ([9]; 2000 ppm) was 0%. For the same compound, the “Percent crop injury CR” value ([9]; 3000 ppm) was 0%, the “% Control TM” value [10] was 0% and the “Percent crop injury RC” value ([11]; 1000 ppm) was 50%. The “Percent crop injury RC” value ([11]; 2000 ppm) was 50%, the “Percent crop injury RC” value ([11]; 3000 ppm) was 50% and the “% Control PS” value [12] was 75%. For the same compound, the “herbicidal efficacy” value [13] was “good to excellent herbicidal efficacy”, the “Percent Weed Control VL” value ([14]; 1000 ppm) was 90% and the “Percent Weed Control VL” value ([14]; 2000 ppm) was 90%. The “Percent Weed Control VL” value ([14]; 3000 ppm) was 90%, the “% Control GF” value [15] was 25% and the “Percent crop injury CT” value ([16]; 1000 ppm) was 20%. The “Percent crop injury CT” value ([16]; 2000 ppm) was 20%, the “Percent crop injury CT” value ([16]; 3000 ppm) was 20% and the “control of several grass weeds” value [17] was “good control of several grass weeds”. For the same compound, the “% Control SG” value [18] was 35%, the “% Control GF” value [19] was 95% and the “Percent Weed Control PS” value ([20]; 1000 ppm) was 0%. The “Percent Weed Control PS” value ([20]; 2000 ppm) was 0%, the “Percent Weed Control PS” value ([20]; 3000 ppm) was 0% and the “Percent Weed Control GF” value ([21]; 1000 ppm) was 100%. The “Percent Weed Control GF” value ([21]; 2000 ppm) was 100%, the “Percent Weed Control GF” value ([21]; 3000 ppm) was 100% and the “% Control TM” value [22] was 55%. For the same compound, the “Percent crop injury SO” value ([23]; 1000 ppm) was 20%, the “Percent crop injury SO” value ([23]; 2000 ppm) was 20% and the “Percent crop injury SO” value ([23]; 3000 ppm) was 20%. The “Percent Weed Control BG” value ([24]; 1000 ppm) was 85%, the “Percent Weed Control BG” value ([24]; 2000 ppm) was 85% and the “Percent Weed Control BG” value ([24]; 3000 ppm) was 95%. For the same compound, the “% Control VL” value [25] was 95%.
